What was measured:
[1] = molecular target: T1, ryanodine receptor (Oryctolagus cuniculus, UniProt P30957); assay: SR Ca2+ release assay (Ca2+ leak from permeabilised cell aggregates); type: cell-based, rabbit; conditions: after 40 mM caffeine, FIG. 2
T1 construct: The atria were removed and discarded whereas the right and left ventricle was kept for experiments; endogenous in cells; host or cells: isolated rabbit ventricular cardiomyocytes, beta-escin permeabilised, frozen and thawed
Description: Ca^2+ uptake is stimulated by addition of an aliquot of Ca^2+. SERCA inhibition is induced by thapsigargin (5 uM).
The cell aggregate preparation is defrosted in 9× volumes of S2 with the addition of 2-3 aliquots of 100 μM CaCl2. The preparation is then aliquoted into the high format wells (96 or 384 well). […] The slow progressive increase in Ca^2+ concentration within the bath reflects Ca^2+ loss from the SR both via the ryanodine receptor and via independent leak pathways. […] As with the assay system above, two options for measurements are possible (i) follow the timecourse of the Ca^2+ release profile in detail by measuring every 1-2 s for 10 mins (ii) measuring the Ca^2+ concentration at a set time (e.g. 10 mins) after initiation of the reaction. Compounds that stimulate the SR Ca^2+ leak will cause the increase of Ca^2+ concentration to occur faster than control (vehicle). Conversely compounds that inhibit the SR Ca^2+ leak will slow the increase of Ca^2+ concentration.

[2] = molecular target: T2, SR Ca2+ ATPase (SERCA) (Oryctolagus cuniculus, UniProt P20647); assay: SR uptake assay in permeabilised cell preparations; type: cell-based, rabbit; conditions: FIG. 1C
T2 construct: The atria were removed and discarded whereas the right and left ventricle was kept for experiments; endogenous in cells; host or cells: isolated rabbit ventricular cardiomyocytes, beta-escin permeabilised, frozen and thawed
Description: As indicated above the figure, Ca^2+ was added to increase the [Ca^2+] within the aggregate to ˜1.5 μM. No Ca^2+ uptake occurs due to the absence of Mg^2+ (and therefore MgATP). Addition of Me starts the reaction. The initial increase of [Ca^2+] is caused by displacement of Ca^2+ from ATP.
Aliquots of cells are defrosted gradually with the addition of 9 volumes of S1 solution. This was followed by addition of CaCl2 to increase the free [Ca^2+] to ˜1.5 μM (˜100 μM total Ca^2+). The mixture can then be distributed into the 96 or high format arrays. Incubation of the preparation with the compound of interest can occur for 15-20 mins and the SR uptake reaction began by addition of 5.5 mM MgCl2 (with stirring). This provides the substrate (MgATP) to allow SR uptake of Ca^2+. There are two options for measurement: (i) follow the time course of the Ca^2+ uptake profile in detail by measuring every 1-2 s for up to 10 mins (ii) measuring the Ca^2+ concentration at a set time (e.g. 10 mins) after initiation of the reaction. […] These effects can be monitored in detail (option (i)—see FIG. 1 and description thereof for an example) or by simply measuring Fluo-3 fluorescence at one time point (option (ii)).

[3] = system: myocytes; assay: Trypan blue assay (access of dye into myocytes); type: cell-based, rabbit
Excerpt: (§1) The following description illustrates two methods which were used to test permeabilisation of rabbit myocytes by a batch of beta-escin, and to compare two different commercial batches of saponin.
(§2) The haemocytometer method of cell counting was used to count the number of non-permeable myocytes before and after application of the permeabilising agent (either saponin or β-Escin). Freshly dissociated cardiac muscle cells were obtained in a solution of low calcium. These were filtered and transferred into two 13.5 ml test tubes. Each was centrifuged for approximately 12 seconds at 5 g and the supernatant was discarded. Approximately 4.5 ml of EGTA solution was used to re-suspend the pellet in each tube. The contents of both were combined to form the stock suspension.
Access of the vital dye Trypan blue (MW: 950 approx.) into myocytes was used to evaluate permeabilisation by Saponin (Calbiochem brand) or β-escin. Permeabilised myocytes were identified by positive staining (blue colour) of the cell contents. Cells with intact membranes excluded the dye and it was this population that was counted.
For each run utilising the trypan blue assay, eight 13.5 ml test tubes were obtained. Each was labelled control 1, control 2, 0.1, 1, 10, 100, 1000 or 10000.
The cell stock suspension was agitated to ensure uniform distribution of cells and exactly 1 ml was pipetted into each tube. These were then transferred to the fridge to prevent degradation of the cells. Each tube was put through the following protocol in turn. The required volume of permeabilising agent was added (see Table 2) and a stopclock was started.
Once the incubation time had elapsed the tube was centrifuged for approximately 12 seconds at 5 g and the supernatant was withdrawn. The pellet was re-suspended in 0.5 mls of EGTA solution and 0.5 mls of 0.5% Trypan blue (BDH Laboratory Supplies, Poole, England) in 5 mM EGTA, which had been previously gently heated to ensure that the dye was dissolved. The tube was agitated and cell density determined by hamocytometer counting.
The protocol was followed for all concentrations under investigation; for the two controls no permeabilising agent was added and thus no incubation step was required.
(§3) Graphs were plotted and non-linear logistic curves were fitted using least squares technique by the Microcal™ Origin™ package (version 5.0, Microcal Software Inc.). ED50 values and their associated errors were also estimated using this software. Analysis of variance (ANOVA) using Tukey's post-test comparison was used to verify significance between ED50 values (GraphPad InStat™, GraphPad Software, V2.05a).

[4] = system: cardiac myocytes; assay: Permeabilisation of a sample of cardiac myocytes; type: cell-based; conditions: at 1 mg/ml
[5] = system: myocytes; assay: Ca2+-contraction assay (rod count by haemocytometer); type: cell-based, rabbit
Excerpt: as §1, §2
Physiologically, myofilaments are activated by a rapid increase in the cytosolic Ca^2+ concentration from 0.1 μM to approximately 2 μM which occurs mainly due to Ca^2+ release from the SR (Levick, 2000). The Ca^2+-contraction assay used in this investigation relies upon the fact that cells with permeabilised membranes allow free access of Ca^2+ to the cytosol when exposed to high extracellular Ca^2+ concentrations. This activates the myofilaments of the cell causing it to contract into a ball. Non-permeabilised myocytes retain their characteristic rod shape. The effects of permeabilising agents on the cell population were quantified by counting the proportion of rod-shaped cells.
On each run utilising the Ca^2+-contraction assay, sixteen 13.5 ml test tubes were obtained. Eight of these were labelled “EGTA” whilst the remaining eight were labelled “CaEGTA”. Within both sets of eight, individual tubes were labelled control 1, control 2, 0.01, 0.1, 1, 10, 100 and 1000.
The cell stock suspension was agitated to ensure uniform distribution of cells and exactly 1 ml was pipetted into each tube labelled “EGTA”. These tubes were then transferred to the fridge to prevent degradation of the cells.
Each tube was put through the following protocol in turn. The required volume of permeabilising agent was added (see Table 2) and a stopclock was started. During the two minute incubation time, exactly 0.5 mls of the contents of the “EGTA” tube was withdrawn using a pipette and transferred to the corresponding “CaEGTA” tube.
Once the incubation time had elapsed the tubes were centrifuged for approximately 12 seconds at 5 g and the supernatant was withdrawn. The “EGTA” pellet was re-suspended in 0.5 mls of EGTA solution and the “CaEGTA” pellet in 0.5 mls of CeEGTA solution. Both tubes were agitated and the cell density determined by haemocytometer. The protocol was followed for all concentrations under investigation; for the two controls no permeabilising agent was added and thus no incubation step was required.
The effect of exposing myocytes to exceedingly high concentrations of permeabilising agent ([…]) was investigated for both β-Escin and saponin. The protocol followed was the same as the Ca^2+-contraction assay protocol (described above). 100 μl of the 100 mg/ml stock was added to the 1 ml suspension volume to achieve the required concentration (see Table 2). A control plus a low concentration of agent (1 μg/ml) were also studied to validate results.
The concentrations investigated were 1, 10, 100 and 1000 μg/ml for each saponin plus two controls. The experimental protocol followed was the same as for the Ca^2+-contraction assay method above.
as §3

T1 sequence (P30957 whole entry): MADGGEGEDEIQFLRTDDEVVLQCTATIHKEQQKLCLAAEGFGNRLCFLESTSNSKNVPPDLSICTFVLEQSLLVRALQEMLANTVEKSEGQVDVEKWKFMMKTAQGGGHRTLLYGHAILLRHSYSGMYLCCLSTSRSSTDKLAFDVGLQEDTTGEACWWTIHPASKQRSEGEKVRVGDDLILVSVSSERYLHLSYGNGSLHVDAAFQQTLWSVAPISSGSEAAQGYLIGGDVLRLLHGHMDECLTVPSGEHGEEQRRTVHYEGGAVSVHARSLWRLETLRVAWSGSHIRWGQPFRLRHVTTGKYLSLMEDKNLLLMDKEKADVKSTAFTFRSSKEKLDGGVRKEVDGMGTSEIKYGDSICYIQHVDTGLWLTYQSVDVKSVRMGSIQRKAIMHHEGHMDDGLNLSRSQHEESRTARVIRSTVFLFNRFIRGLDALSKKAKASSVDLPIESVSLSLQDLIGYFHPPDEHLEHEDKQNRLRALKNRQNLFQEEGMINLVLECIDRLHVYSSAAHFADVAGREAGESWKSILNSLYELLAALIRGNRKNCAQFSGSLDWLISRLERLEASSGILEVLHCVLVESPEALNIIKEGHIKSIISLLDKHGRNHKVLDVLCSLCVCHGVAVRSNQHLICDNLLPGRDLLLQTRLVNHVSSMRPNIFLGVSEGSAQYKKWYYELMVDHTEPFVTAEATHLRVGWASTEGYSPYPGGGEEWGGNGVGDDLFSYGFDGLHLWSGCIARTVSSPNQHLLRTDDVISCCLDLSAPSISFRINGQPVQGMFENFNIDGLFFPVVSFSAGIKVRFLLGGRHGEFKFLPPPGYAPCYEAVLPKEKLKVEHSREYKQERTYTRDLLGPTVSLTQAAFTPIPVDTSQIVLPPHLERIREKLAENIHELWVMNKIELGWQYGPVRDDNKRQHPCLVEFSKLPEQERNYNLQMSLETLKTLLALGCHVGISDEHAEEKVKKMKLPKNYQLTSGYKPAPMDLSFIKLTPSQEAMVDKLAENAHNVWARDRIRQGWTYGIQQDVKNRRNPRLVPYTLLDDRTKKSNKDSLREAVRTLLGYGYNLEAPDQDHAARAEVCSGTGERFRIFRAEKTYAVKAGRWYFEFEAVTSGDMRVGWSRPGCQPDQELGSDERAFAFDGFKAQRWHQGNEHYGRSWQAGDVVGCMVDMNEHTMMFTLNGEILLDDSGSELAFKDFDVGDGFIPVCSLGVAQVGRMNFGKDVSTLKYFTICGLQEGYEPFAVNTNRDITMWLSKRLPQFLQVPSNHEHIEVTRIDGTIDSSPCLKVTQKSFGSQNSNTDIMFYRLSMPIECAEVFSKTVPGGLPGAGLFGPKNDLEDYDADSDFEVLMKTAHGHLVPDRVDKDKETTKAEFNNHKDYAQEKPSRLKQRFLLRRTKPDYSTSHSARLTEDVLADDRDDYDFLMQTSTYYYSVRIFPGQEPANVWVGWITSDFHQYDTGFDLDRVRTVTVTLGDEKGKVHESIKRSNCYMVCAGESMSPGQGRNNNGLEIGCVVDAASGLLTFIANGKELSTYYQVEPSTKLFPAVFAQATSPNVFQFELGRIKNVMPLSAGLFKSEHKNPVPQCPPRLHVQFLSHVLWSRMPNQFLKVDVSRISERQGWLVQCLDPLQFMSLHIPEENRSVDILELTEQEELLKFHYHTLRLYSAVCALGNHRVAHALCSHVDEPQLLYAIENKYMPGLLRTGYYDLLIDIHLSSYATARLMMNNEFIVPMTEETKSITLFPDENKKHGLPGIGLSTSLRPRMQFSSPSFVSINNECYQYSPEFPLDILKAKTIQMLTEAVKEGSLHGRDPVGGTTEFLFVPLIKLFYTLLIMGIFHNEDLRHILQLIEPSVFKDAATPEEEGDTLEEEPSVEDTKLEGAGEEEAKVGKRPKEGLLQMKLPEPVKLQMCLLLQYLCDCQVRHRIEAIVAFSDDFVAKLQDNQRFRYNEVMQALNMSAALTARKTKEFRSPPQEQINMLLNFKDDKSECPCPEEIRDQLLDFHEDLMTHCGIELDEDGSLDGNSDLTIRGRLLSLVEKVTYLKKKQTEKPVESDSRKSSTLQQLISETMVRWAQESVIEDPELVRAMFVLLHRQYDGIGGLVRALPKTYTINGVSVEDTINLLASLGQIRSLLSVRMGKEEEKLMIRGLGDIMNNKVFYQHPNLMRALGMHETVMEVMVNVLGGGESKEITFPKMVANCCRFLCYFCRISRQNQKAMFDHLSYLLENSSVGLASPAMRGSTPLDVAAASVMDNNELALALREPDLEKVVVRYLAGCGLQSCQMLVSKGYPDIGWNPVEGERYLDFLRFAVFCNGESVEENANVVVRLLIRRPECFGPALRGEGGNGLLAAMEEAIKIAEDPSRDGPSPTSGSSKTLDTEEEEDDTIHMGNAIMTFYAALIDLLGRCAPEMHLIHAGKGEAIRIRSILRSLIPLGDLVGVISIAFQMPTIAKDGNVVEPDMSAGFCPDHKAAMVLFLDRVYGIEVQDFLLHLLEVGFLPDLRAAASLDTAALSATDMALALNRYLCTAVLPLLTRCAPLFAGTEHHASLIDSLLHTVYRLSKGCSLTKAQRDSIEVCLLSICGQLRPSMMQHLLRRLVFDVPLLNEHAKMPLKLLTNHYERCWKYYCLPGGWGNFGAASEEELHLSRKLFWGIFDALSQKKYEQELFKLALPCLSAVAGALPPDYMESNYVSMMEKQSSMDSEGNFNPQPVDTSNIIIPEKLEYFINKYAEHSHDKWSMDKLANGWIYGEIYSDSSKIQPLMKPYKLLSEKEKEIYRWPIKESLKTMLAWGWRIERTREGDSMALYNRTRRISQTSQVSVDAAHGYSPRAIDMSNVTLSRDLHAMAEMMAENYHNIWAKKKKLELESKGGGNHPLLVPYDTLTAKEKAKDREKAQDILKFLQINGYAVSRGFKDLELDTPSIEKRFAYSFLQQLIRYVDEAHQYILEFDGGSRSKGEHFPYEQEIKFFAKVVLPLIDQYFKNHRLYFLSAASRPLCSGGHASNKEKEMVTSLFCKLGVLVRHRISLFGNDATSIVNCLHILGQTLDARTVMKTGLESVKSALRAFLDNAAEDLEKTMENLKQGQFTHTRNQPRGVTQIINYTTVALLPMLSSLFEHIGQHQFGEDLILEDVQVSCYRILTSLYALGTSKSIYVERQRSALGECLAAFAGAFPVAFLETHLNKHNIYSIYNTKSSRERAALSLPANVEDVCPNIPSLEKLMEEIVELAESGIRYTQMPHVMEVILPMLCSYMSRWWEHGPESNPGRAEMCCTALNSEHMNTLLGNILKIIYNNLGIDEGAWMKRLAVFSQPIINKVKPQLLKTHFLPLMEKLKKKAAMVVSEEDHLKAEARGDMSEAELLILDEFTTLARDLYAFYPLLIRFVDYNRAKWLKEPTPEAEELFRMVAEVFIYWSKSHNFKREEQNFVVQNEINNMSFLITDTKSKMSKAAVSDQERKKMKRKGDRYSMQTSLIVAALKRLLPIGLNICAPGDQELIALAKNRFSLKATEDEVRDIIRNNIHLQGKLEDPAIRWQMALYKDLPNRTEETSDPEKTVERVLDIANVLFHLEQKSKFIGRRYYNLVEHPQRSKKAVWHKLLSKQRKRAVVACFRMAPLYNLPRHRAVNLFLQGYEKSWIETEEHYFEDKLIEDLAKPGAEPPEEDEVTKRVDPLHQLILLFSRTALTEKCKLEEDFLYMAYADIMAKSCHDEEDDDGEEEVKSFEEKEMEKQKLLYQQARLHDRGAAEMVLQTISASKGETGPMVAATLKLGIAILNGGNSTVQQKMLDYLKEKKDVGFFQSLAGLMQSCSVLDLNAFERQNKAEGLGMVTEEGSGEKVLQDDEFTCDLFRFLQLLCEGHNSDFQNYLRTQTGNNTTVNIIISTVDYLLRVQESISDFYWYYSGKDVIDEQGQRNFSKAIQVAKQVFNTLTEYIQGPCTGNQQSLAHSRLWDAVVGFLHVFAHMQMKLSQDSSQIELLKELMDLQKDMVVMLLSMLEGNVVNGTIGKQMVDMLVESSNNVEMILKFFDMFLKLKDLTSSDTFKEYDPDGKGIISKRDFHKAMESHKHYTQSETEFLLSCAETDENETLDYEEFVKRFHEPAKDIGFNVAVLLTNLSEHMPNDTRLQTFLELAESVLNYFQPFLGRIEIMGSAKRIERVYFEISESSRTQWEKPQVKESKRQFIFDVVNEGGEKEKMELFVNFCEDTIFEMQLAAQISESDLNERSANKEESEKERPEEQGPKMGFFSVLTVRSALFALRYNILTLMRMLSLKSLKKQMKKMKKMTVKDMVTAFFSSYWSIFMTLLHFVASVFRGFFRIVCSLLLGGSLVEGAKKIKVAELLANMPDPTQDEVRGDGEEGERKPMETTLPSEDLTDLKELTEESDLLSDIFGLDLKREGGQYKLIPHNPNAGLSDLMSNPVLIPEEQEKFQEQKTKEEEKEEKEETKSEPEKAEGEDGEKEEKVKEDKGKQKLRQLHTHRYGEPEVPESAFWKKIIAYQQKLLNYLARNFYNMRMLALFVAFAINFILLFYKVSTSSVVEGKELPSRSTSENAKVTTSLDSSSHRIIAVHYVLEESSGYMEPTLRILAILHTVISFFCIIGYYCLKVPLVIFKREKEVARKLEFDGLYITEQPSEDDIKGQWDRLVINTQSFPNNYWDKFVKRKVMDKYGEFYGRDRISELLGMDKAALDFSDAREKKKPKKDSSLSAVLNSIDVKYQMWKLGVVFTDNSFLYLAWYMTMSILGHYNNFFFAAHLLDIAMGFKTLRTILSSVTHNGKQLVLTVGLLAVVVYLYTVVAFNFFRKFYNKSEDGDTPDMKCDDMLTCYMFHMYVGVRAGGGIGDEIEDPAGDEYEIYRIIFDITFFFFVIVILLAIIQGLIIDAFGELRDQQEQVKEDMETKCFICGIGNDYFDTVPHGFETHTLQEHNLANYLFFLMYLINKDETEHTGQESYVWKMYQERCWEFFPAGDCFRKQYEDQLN

In the case of `N.N.N.N.N.N.N.N.N.N.N.N.N.N.[Cl-].[Cl-].[Cl-].[Cl-].[Cl-].[Cl-].[O-2].[O-2].[Ru+3].[Ru+3].[Ru+4]` [ruthenium red], the “effect on caffeine-stimulated Ca2+ leak from SR” value [1] is reported as “blocked”.
`C/C=C(/C)C(=O)O[C@H]1C(C)=C2[C@H]([C@@H]1OC(=O)CCCCCCC)[C@@](C)(OC(C)=O)C[C@H](OC(=O)CCC)[C@@]1(O)[C@H]2OC(=O)[C@@]1(C)O` [thapsigargin] was tested, and the “effect on SERCA” value [2] was “inhibition”.
With β-escin the “concentration from which trypan blue began to enter the myocytes” value [3] was 1 to 10 µg/mL, the “mean rod count excluding dye” value ([3]; at 0.1 μg/ml) was “approximately 90%” and the “mean rod count excluding dye” value ([3]; at 1 μg/ml) was “approximately 110%”. For the same compound, the “decrease of mean rod count, of the control value” ([3]; at 10 μg/ml) was “approximately 35%”, the “proportion of control population permeable to trypan blue” value (shortened to “proportion … to trypan blue”) ([3]; at 100 μg/ml) was “Approximately 100%” and the “proportion … to trypan blue” value ([3]; at 1000 μg/ml) was “Approximately 100%”. The “proportion … to trypan blue” value ([3]; at 10000 μg/ml) was “Approximately 100%”, the minimum effective concentration ([3]; trypan blue assay) was 100 µg/mL and the “proportion of cardiac myocytes permeabilised” value [4] was “about 10%”. For the same compound, the “concentration at which permeabilisation (decrease in rod count in 5 mM Ca2+ EGTA) began” value ([5]; Ca2+-contraction assay) was 10 µg/mL, the “concentration range over which permeabilisation was produced” value ([5]; Ca2+-contraction assay) was 1 to 10000 µg/mL and the minimum effective concentration ([5]; Ca2+-contraction assay, 5 mM Ca2+ EGTA) was 100 µg/mL. The “proportion of cell population hyperpermeable / permeabilised” value ([5]; at 100 μg/ml) was “Approximately 100%”, the “proportion of cell population hyperpermeable / permeabilised” value ([5]; at 1000 μg/ml) was “Approximately 100%” and the “proportion of cell population hyperpermeable / permeabilised” value ([5]; at 10000 μg/ml) was “Approximately 100%”.
